Data reported in patent US9944602B2, “Piperidinone herbicides” (E. I. DU PONT DE NEMOURS AND COMPANY, priority 2014, dated 2018).

Columns and labels:
Format in all cases: in vivo
[1] = test system: ducksalad (Heteranthera limosa); experiment: Test B flooded paddy test ducksalad; conditions: Heteranthera limosa, Table B, Flood, 250 g ai/ha, scale 0 to 100, read-out: Plant response rating
Outline: (§1)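 Plants grown to the 2-leaf stage; pots flooded to 3 cm above soil at treatment, compound applied directly into paddy water, depth held throughout. Greenhouse 13 to 15 d, then visual evaluation against untreated controls.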

[2] = test system: pigweed (Amaranthus retroflexus); experiment: Test A preemergence pigweed; conditions: Amaranthus retroflexus, pre-emergence, 240 h, 0 to 100 scale, 0 no effect, 100 complete control, read-out: Pigweed plant response rating; for pest or weed control at 125 g/ha: 125 g ai/ha; for pest or weed control at 500 g/ha: 500 g ai/ha
Outline: (§2)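 Plants were grown in a blend of loam soil and sand. For preemergence testing the soil was sprayed directly after seeding, while postemergence testing used seedlings 2–10 cm high at one to two leaves; all treatments were rated visually for injury (0–100) after ~10 d.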

[3] = test system: galium (catchweed bedstraw, Galium aparine); experiment: Test A postemergence galium; conditions: Galium, post-emergence, 240 h, 0 to 100 scale, 0 is no effect, 100 is complete control, read-out: Plant response rating, Galium; for pest or weed control at 125 g/ha: 125 g ai/ha; for pest or weed control at 500 g/ha: 500 g ai/ha
Outline: as §2

[4] = test system: ryegrass, Italian (Italian ryegrass, Lolium multiflorum); experiment: Test A postemergence ryegrass, Italian; conditions: Lolium multiflorum, post-emergence, 240 h, 0 to 100 scale, 0 is no effect, 100 is complete control, read-out: Plant response rating, Ryegrass, Italian; for pest or weed control at 125 g/ha: 125 g ai/ha; for pest or weed control at 500 g/ha: 500 g ai/ha
Outline: as §2

[5] = test system: ragweed (common ragweed, Ambrosia elatior); experiment: Test A postemergence ragweed; conditions: Ambrosia artemisiifolia, post-emergence, 240 h, 0 to 100 scale, 0 is no effect, 100 is complete control, read-out: Plant response rating, Ragweed; for pest or weed control at 125 g/ha: 125 g ai/ha; for pest or weed control at 500 g/ha: 500 g ai/ha
Outline: as §2

[6] = test system: blackgrass (Alopecurus myosuroides); experiment: Test A postemergence blackgrass; conditions: Alopecurus myosuroides, post-emergence, 240 h, 0 to 100 scale, 0 is no effect, 100 is complete control, read-out: Plant response rating, Blackgrass; for pest or weed control at 125 g/ha: 125 g ai/ha; for pest or weed control at 500 g/ha: 500 g ai/ha
Outline: as §2

[7] = test system: ryegrass, Italian (Italian ryegrass, Lolium multiflorum); experiment: Test A preemergence ryegrass, Italian; conditions: Lolium multiflorum, pre-emergence, 240 h, 0 to 100 scale, 0 no effect, 100 complete control, read-out: Ryegrass, Italian plant response rating; for pest or weed control at 125 g/ha: 125 g ai/ha; for pest or weed control at 500 g/ha: 500 g ai/ha
Outline: as §2

corn (Zea mays) = experiment: Test A postemergence corn; conditions: Zea mays, post-emergence, 240 h, 0 to 100 scale, 0 is no effect, 100 is complete control; for Corn plant response rating (crop injury, 0 = no effect, 100 = complete kill) at 125 g/ha: 125 g ai/ha; for Corn plant response rating (crop injury, 0 = no effect, 100 = complete kill) at 500 g/ha: 500 g ai/ha
Outline: as §2

kochia (Kochia scoparia) [8] = experiment: Test A preemergence kochia; conditions: Bassia scoparia, pre-emergence, 240 h, 0 to 100 scale, 0 no effect, 100 complete control, read-out: Kochia plant response rating; for pest or weed control at 125 g/ha: 125 g ai/ha; for pest or weed control at 500 g/ha: 500 g ai/ha
Outline: as §2

[9] = test system: foxtail, giant (giant foxtail, Setaria faberii); experiment: Test A postemergence foxtail, giant; conditions: Setaria faberi, post-emergence, 240 h, 0 to 100 scale, 0 is no effect, 100 is complete control, read-out: Plant response rating, Foxtail, Giant; for pest or weed control at 125 g/ha: 125 g ai/ha; for pest or weed control at 500 g/ha: 500 g ai/ha
Outline: as §2

[10] = test system: barnyardgrass (Echinochloa crus-galli); experiment: Test A preemergence barnyardgrass; conditions: Echinochloa crus-galli, pre-emergence, 240 h, 0 to 100 scale, 0 no effect, 100 complete control, read-out: Barnyardgrass plant response rating; for pest or weed control at 125 g/ha: 125 g ai/ha; for pest or weed control at 500 g/ha: 500 g ai/ha
Outline: as §2

[11] = test system: barnyardgrass (Echinochloa crus-galli); experiment: Test A postemergence barnyardgrass; conditions: Echinochloa crus-galli, post-emergence, 240 h, 0 to 100 scale, 0 is no effect, 100 is complete control, read-out: Plant response rating, Barnyardgrass; for pest or weed control at 125 g/ha: 125 g ai/ha; for pest or weed control at 500 g/ha: 500 g ai/ha
Outline: as §2

[12] = test system: wheat (Triticum aestivum); experiment: Test A postemergence wheat; conditions: Triticum aestivum, post-emergence, 240 h, 0 to 100 scale, 0 is no effect, 100 is complete control, read-out: Plant response rating, Wheat; for plant injury at 125 g/ha: 125 g ai/ha; for plant injury at 500 g/ha: 500 g ai/ha
Outline: as §2

[13] = test system: pigweed (Amaranthus retroflexus); experiment: Test A postemergence pigweed; conditions: Amaranthus retroflexus, post-emergence, 240 h, 0 to 100 scale, 0 is no effect, 100 is complete control, read-out: Plant response rating, Pigweed; for pest or weed control at 125 g/ha: 125 g ai/ha; for pest or weed control at 500 g/ha: 500 g ai/ha
Outline: as §2

[14] = test system: barnyardgrass (Echinochloa crus-galli); experiment: Test B flooded paddy test barnyardgrass; conditions: Echinochloa crus-galli, Table B, Flood, 250 g ai/ha, scale 0 to 100, read-out: Plant response rating
Outline: as §1

kochia (Kochia scoparia) [15] = experiment: Test A postemergence kochia; conditions: Bassia scoparia, post-emergence, 240 h, 0 to 100 scale, 0 is no effect, 100 is complete control, read-out: Plant response rating, Kochia; for pest or weed control at 125 g/ha: 125 g ai/ha; for pest or weed control at 500 g/ha: 500 g ai/ha
Outline: as §2

rice (Oryza sativa) = experiment: Test B flooded paddy test rice; conditions: Oryza sativa, Table B, Flood, 250 g ai/ha, scale 0 to 100, read-out: Plant response rating
Outline: as §1

[16] = test system: sedge, umbrella (small-flower umbrella sedge, Cyperus difformis); experiment: Test B flooded paddy test sedge, umbrella; conditions: Cyperus difformis, Table B, Flood, 250 g ai/ha, scale 0 to 100, read-out: Plant response rating
Outline: as §1

[17] = test system: foxtail, giant (giant foxtail, Setaria faberii); experiment: Test A preemergence foxtail, giant; conditions: Setaria faberi, pre-emergence, 240 h, 0 to 100 scale, 0 no effect, 100 complete control, read-out: Foxtail, Giant plant response rating; for pest or weed control at 125 g/ha: 125 g ai/ha; for pest or weed control at 500 g/ha: 500 g ai/ha
Outline: as §2

[18] = test system: ragweed (common ragweed, Ambrosia elatior); experiment: Test A preemergence ragweed; conditions: Ambrosia artemisiifolia, pre-emergence, 240 h, 0 to 100 scale, 0 no effect, 100 complete control, read-out: Ragweed plant response rating; for pest or weed control at 125 g/ha: 125 g ai/ha; for pest or weed control at 500 g/ha: 500 g ai/ha
Outline: as §2

| SMILES | pest or weed control at 250 g/ha [1] | pest or weed control at 125 g/ha [2] | pest or weed control at 500 g/ha [2] | pest or weed control at 125 g/ha [3] | pest or weed control at 500 g/ha [3] | pest or weed control at 125 g/ha [4] | pest or weed control at 500 g/ha [4] | pest or weed control at 125 g/ha [5] | pest or weed control at 500 g/ha [5] | pest or weed control at 125 g/ha [6] | pest or weed control at 500 g/ha [6] | pest or weed control at 125 g/ha [7] | pest or weed control at 500 g/ha [7] | Corn plant response rating (crop injury, 0 = no effect, 100 = complete kill) at 125 g/ha (corn (Zea mays)) | Corn plant response rating (crop injury, 0 = no effect, 100 = complete kill) at 500 g/ha (corn (Zea mays)) | pest or weed control at 125 g/ha (kochia (Kochia scoparia) [8]) | pest or weed control at 500 g/ha (kochia (Kochia scoparia) [8]) | pest or weed control at 125 g/ha [9] | pest or weed control at 500 g/ha [9] | pest or weed control at 125 g/ha [10] | other results |
| --- | --- | --- | --- | --- | --- | --- | --- | --- | --- | --- | --- | --- | --- | --- | --- | --- | --- | --- | --- | --- | --- |
| O=C1NCC[C@H](c2cccc(Cl)c2)[C@H]1C(=O)Nc1cccc(F)c1F [Compound 42, (3R,4S)-4-(3-chlorophenyl)-N-(2,3-difluorophenyl)-2-oxo-3-piperidinecarboxamide] | 95% | 0% | 10% | 0% | 10% | 40% | 50% | 0% | 0% | 40% | 70% | 40% | 60% | 10% | 60% | 0% | 0% | 90% | 90% | 90% | pest or weed control at 500 g/ha [10]: 90%; pest or weed control at 125 g/ha [11]: 80%; pest or weed control at 500 g/ha [11]: 90%; plant injury at 125 g/ha [12]: 0%; plant injury at 500 g/ha [12]: 60%; pest or weed control at 125 g/ha [13]: 0%; pest or weed control at 500 g/ha [13]: 0%; pest or weed control at 250 g/ha [14]: 75%; pest or weed control at 125 g/ha (kochia (Kochia scoparia) [15]): 0%; pest or weed control at 500 g/ha (kochia (Kochia scoparia) [15]): 30%; plant injury at 250 g/ha (rice (Oryza sativa)): 0%; pest or weed control at 250 g/ha [16]: 0%; pest or weed control at 125 g/ha [17]: 90%; pest or weed control at 500 g/ha [17]: 90%; pest or weed control at 125 g/ha [18]: 0%; pest or weed control at 500 g/ha [18]: 0% |
| CN1CC[C@H](c2ccc(F)cc2)[C@@H](C(=O)Nc2cccc(F)c2F)C1=O [Compound 52, (3S,4S)—N-(2,3-difluorophenyl)-4-(4-fluorophenyl)-1-methyl-2-oxo-3-piperidinecarboxamide] | 100% | 30% | 80% | 0% | 50% | 0% | 20% | 0% | 0% | 0% | 0% | 20% | 30% | 0% | 10% | 0% | 20% | 80% | 80% | 90% | pest or weed control at 500 g/ha [10]: 90%; pest or weed control at 125 g/ha [11]: 70%; pest or weed control at 500 g/ha [11]: 90%; plant injury at 125 g/ha [12]: 0%; plant injury at 500 g/ha [12]: 20%; pest or weed control at 125 g/ha [13]: 0%; pest or weed control at 500 g/ha [13]: 0%; pest or weed control at 250 g/ha [14]: 30%; pest or weed control at 125 g/ha (kochia (Kochia scoparia) [15]): 0%; pest or weed control at 500 g/ha (kochia (Kochia scoparia) [15]): 20%; plant injury at 250 g/ha (rice (Oryza sativa)): 0%; pest or weed control at 250 g/ha [16]: 0%; pest or weed control at 125 g/ha [17]: 90%; pest or weed control at 500 g/ha [17]: 90%; pest or weed control at 125 g/ha [18]: 20%; pest or weed control at 500 g/ha [18]: 30% |
